The source of these data is patent US20250340516A1, “Isoquinolinones as Modulators of POLRMT” (Pretzel Therapeutics, Inc., priority 2024, published 2025).

Where only a bound is given, the exact number is not on record here.

Chain of POLRMT (O00411 42-1230): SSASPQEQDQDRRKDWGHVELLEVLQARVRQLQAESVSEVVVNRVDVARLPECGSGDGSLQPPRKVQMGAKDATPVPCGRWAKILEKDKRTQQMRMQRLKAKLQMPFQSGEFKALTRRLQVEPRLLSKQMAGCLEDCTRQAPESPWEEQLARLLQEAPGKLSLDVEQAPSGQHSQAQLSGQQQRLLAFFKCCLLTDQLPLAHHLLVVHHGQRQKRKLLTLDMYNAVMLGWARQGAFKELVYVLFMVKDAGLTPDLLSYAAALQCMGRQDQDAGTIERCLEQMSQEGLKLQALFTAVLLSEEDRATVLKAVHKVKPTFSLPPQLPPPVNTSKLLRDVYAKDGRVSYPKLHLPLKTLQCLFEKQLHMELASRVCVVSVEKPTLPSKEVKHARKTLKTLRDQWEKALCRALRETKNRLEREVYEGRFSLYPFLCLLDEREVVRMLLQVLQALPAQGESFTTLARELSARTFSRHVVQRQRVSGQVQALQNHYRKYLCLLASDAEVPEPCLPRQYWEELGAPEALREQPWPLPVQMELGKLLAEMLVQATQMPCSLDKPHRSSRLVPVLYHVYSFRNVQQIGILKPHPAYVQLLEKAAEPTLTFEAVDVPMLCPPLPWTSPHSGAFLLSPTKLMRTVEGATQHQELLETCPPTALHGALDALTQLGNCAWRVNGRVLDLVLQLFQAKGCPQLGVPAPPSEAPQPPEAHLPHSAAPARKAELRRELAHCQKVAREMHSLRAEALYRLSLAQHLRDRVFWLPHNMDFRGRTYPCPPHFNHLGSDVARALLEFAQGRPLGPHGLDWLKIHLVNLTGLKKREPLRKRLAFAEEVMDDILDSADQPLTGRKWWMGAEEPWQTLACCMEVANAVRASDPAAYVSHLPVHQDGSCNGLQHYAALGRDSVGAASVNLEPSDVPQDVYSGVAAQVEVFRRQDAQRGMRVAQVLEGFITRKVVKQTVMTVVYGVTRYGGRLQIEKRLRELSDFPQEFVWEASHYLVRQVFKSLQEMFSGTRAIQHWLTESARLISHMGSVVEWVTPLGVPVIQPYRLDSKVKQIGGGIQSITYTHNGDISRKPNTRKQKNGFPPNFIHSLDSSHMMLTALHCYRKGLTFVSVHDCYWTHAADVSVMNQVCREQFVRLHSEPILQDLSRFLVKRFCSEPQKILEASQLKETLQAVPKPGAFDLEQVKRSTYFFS

This test addresses POLRMT (Homo sapiens (Human), UniProt O00411). The test can be described thus: homogeneous TR-FRET assay of POLRMT inhibition (mitochondrial transcription, 407 bp RNA product). The note with it: 7.5 nM POLRMT, 15 nM TFB2M, 30 nM TFAM, 0.5 nM DNA template, 500 μM NTPs, 37° C., 60 minutes, * = aggregation of data sets, read-out: IC50 values for isoquinolinone compounds. It counts as biochemical. As to the method: The inhibitory activity of the compounds of the present invention against POLRMT were determined by assays based on Bergbrede, T., et al., “An adaptable high-throughput technology enabling the identification of specific transcription modulators,” SLAC Discov., 22, 378-386 (2017).
The ability of some compounds of the present invention to inhibit POLRMT were determined in a homogeneous TR-FRET Assay using high-throughput screening in a 384-well plate format. This method is used to monitor the activity of mitochondrial transcription through measurement of its product, a 407 bp long RNA transcript. Detection of the product is facilitated by hybridization of two DNA-oligonucleotide probes to specific and adjacent sequences within the RNA product sequence. Upon annealing of the probes, two fluorophores are coupled directly to an acceptor nucleotide probe (ATTO647, 5′), or introduced via a coupled streptavidin with a biotinylated donor nucleotide probe (Europium cryptate) that is brought into sufficient proximity to serve as a fluorescence-donor-acceptor pair. Thus, a FRET signal at 665 nm is generated upon excitation at 340 nm.
Proteins used as transcription factors (POLRMT: NP_005026.3, TFAM: NP_003192.1, TFB2M: NP_071761.1) are diluted from their stocks to working concentrations of 1 μM, 20 μM and 4 μM respectively, in a dilution buffer containing 20 mM Tris-HCl (pH 8.0), 200 mM NaCl, 10% (v/v) glycerol, 1 mM Dithiothreitol (DTT), 0.5 mM EDTA.
DNA template is a pUC18 plasmid with the mitochondrial light strand promotor sequence (1-477) cloned between HindIII and BamHI sites. The DNA template is restriction linearized proximal to the promotor 3′-end (pUC-LSP).
The reaction mixture (10 uL) containing 7.5 nM POLRMT, 15 nM of TFB2M, 30 nM of TFAM, 0.5 nM of DNA template and 500 μM nucleotide triphosphate mix (NTPs) in a reaction buffer (containing 10 mM Tris-HCl (pH 7.5), 10 mM MgCl2, 40 mM NaCl, 10 mM DTT, 0.005% (w/v) Tween-20, 160 units/ml Rnase inhibitor and 0.1 mg/mL BSA) are dispensed to compounds in microplates, using a Thermo Multidrop® dispenser, and incubated at 37° C. in a VWR INCU-Line incubator for 60 minutes after mixing. No nucleotide triphosphate mix is added to negative control samples. Microplates with compounds to be tested in the assay are prepared from 10 mM compound stocks in 100% DMSO, equal amounts of DMSO without any compound are added to positive control and negative control samples.
During the incubation, a mix of the detection reagents is prepared in a buffer such that the enzymatic reaction is terminated due to chelating of Mg-ions and increased ionic strength, containing 50 mM Tris-HCl (pH 7.5), 700 mM NaCl, 20 mM EDTA, and 0.01% (w/v) Tween-20. Europium-streptavidin is pre-incubated with a 200-fold molar excess of a random sequence oligonucleotide to block unspecific binding of oligo, for two hours at ambient temperature in the dark. Afterwards, the blocked Europium-streptavidin is kept on ice until use.
At the end of the enzymatic reaction time, 5 μL detection oligo mix in the detection buffer is added, and assay plates are mixed and kept at ambient temperature for one hour, protected from light. The concentration of the Acceptor nucleotide oligo (e.g., ATTO647N-5′-[…]-3′ (SEQ ID NO: 1)) and Donor nucleotide oligo (e.g., bio-5′-AACACATCTCT(-bio)GCCAAACCCCA-bio-3′ (SEQ ID NO: 2)) in each assay well is 1 nM, and 3 nM, respectively.
After incubation with oligo mix, 5 μL of pre-blocked Europium-streptavidin reagent is dispensed to each assay well, assay plates are again mixed and kept at ambient temperature for one hour, protected from light.
The generated signal is measured with BMG Pherastar microtiter plate reader with a TRF light unit, using excitation at 340 nm, an integration time of 200 μs, and a delay time of 100 μs, before detection at 620 nm and 665 nm. The ratio of donor- and acceptor-fluorescence is used as a measure of the generated transcript product (i.e. enzymatic activity).
Turning to `Cc1ccccc1-c1c[nH]c(=O)c2cc(O[C@H](C)C(=O)N3CCCC(C(C)(C)C(N)=O)C3)ccc12` (single isomer, unassigned) [Example 45], the IC50 came to 30 nM.
On to `Cc1ccccc1-c1c[nH]c(=O)c2cc(O[C@H](C)C(=O)N3CCCC(C4(C(=O)O)CC4)C3)ccc12` (stereo partly drawn) [Example 34, 1-(1-((R)-2-((1-oxo-4-(o-tolyl)-1,2-dihydroisoquinolin-7-yl)oxy)propanoyl)piperidin-3-yl)cyclopropane-1-carboxylic acid], for which the IC50 worked out at 30 nM.
Regarding `CCCC1(C(=O)O)CCCN(C(=O)[C@@H](C)Oc2ccc3c(-c4ccccc4C)c[nH]c(=O)c3c2)C1` (single isomer, unassigned) [Example 66], the half-maximal inhibitory concentration (IC50) came out at 100 nM.
Turning to `Cc1ccccc1-c1c[nH]c(=O)c2cc(O[C@@H](C)C(=O)N[C@H](C)C(N)=O)ccc12` [Example 24, (S)-N-((R)-1-amino-1-oxopropan-2-yl)-2-((1-oxo-4-(o-tolyl)-1,2-dihydroisoquinolin-7-yl)oxy)propanamide], the IC50 was 37000 nM.
With `Cc1ccccc1-c1c[nH]c(=O)c2cc(O[C@H](C)C(=O)N3CCC[C@H](CC(N)=O)C3)ccc12` [Example 38, 2-((R)-1-((R)-2-((1-oxo-4-(o-tolyl)-1,2-dihydroisoquinolin-7-yl)oxy)propanoyl)piperidin-3-yl)acetamide] the figure was 9 nM; with `CC(=O)N1CCN(C[C@H](C)Oc2ccc3c(-c4ccccc4C)c[nH]c(=O)c3c2)CC1` [Example 55, (S)-7-((1-(4-acetylpiperazin-1-yl)propan-2-yl)oxy)-4-(o-tolyl)isoquinolin-1(2H)-one], 37000 nM; with `CCOC(=O)CN(C)c1ccc2c(-c3ccccc3C)c[nH]c(=O)c2c1` [Example 3, ethyl N-methyl-N-(1-oxo-4-(o-tolyl)-1,2-dihydroisoquinolin-7-yl)glycinate], 300 nM.
With `Cc1ccccc1-c1c[nH]c(=O)c2cc(O[C@H](C)C(=O)N(C)CC(=O)O)ccc12` [Example 78, (R)-N-methyl-N-(2-((1-oxo-4-(o-tolyl)-1,2-dihydroisoquinolin-7-yl)oxy)propanoyl)glycine] the figure was 1000 nM; with `Cc1ccccc1-c1c[nH]c(=O)c2cc(O[C@H](C)C(=O)NCC(N)=O)ccc12` [Example 60, (R)-N-(2-amino-2-oxoethyl)-2-((1-oxo-4-(o-tolyl)-1,2-dihydroisoquinolin-7-yl)oxy)propanamide], 100 nM.
Take `Cc1ccccc1-c1c[nH]c(=O)c2cc(O[C@H](C)C(=O)N3CC[C@H](N(C)C)C3)ccc12` [Example 65, 7-(((R)-1-((S)-3-(dimethylamino)pyrrolidin-1-yl)-1-oxopropan-2-yl)oxy)-4-(o-tolyl)isoquinolin-1(2H)-one]: the IC50 was found to be 100 nM.
Regarding `CC(=O)N1CC2CC1CN2C(=O)[C@@H](C)Oc1ccc2c(-c3ccc(F)cc3Cl)c[nH]c(=O)c2c1` (stereo partly drawn) [Example 6, 7-(((2R)-1-(5-acetyl-2,5-diazabicyclo[2.2.1]heptan-2-yl)-1-oxopropan-2-yl)oxy)-4-(2-chloro-4-fluorophenyl)isoquinolin-1(2H)-one], the IC50 turned out to be 1000 nM.
Consider `Cc1ccccc1-c1c[nH]c(=O)c2cc(N(C)CC(=O)N[C@H](C)C(N)=O)ccc12` [Example 69, (R)-2-(2-(methyl(1-oxo-4-(o-tolyl)-1,2-dihydroisoquinolin-7-yl)amino)acetamido)propanamide], for which the IC50 came to 3000 nM.
With `Cc1ccccc1-c1c[nH]c(=O)c2cc(O[C@H](C)C(=O)N3CCCC(C4(C(N)=O)CC4)C3)ccc12` (single isomer, unassigned) [Example 41] the figure was 40 nM; with `C[C@@H](Oc1ccc2c(-c3ccc(F)cc3Cl)c[nH]c(=O)c2c1)C(=O)N1CCCC(C2(C(=O)O)CC2)C1` (single isomer, unassigned) [Example 36], 80 nM.
In the case of `COC(=O)CN(C)C(=O)[C@H](C)Oc1ccc2c(-c3ccccc3C)c[nH]c(=O)c2c1` [Example 25, methyl (S)-N-methyl-N-(2-((1-oxo-4-(o-tolyl)-1,2-dihydroisoquinolin-7-yl)oxy)propanoyl)glycinate], the IC50 was more than 100000 nM.
Take `COCc1ccccc1-c1c[nH]c(=O)c2cc(OCC#N)ccc12` [Example 47, 2-((4-(2-(methoxymethyl)phenyl)-1-oxo-1,2-dihydroisoquinolin-7-yl)oxy)acetonitrile]: the IC50 amounted to 18000 nM.
With `Cc1ccccc1-c1c[nH]c(=O)c2cc(O[C@H](C)C(=O)N(C)CC(N)=O)ccc12` [Example 61, (R)-N-(2-amino-2-oxoethyl)-N-methyl-2-((1-oxo-4-(o-tolyl)-1,2-dihydroisoquinolin-7-yl)oxy)propanamide] the figure was 100 nM; with `CCNC1CCN(C(=O)[C@@H](C)Oc2ccc3c(-c4ccccc4C)c[nH]c(=O)c3c2)CC1` [Example 77, (R)-7-((1-(4-(ethylamino)piperidin-1-yl)-1-oxopropan-2-yl)oxy)-4-(o-tolyl)isoquinolin-1(2H)-one], 1000 nM.
In the case of `C[C@@H](C(=O)N1CCC[C@H](C(=O)O)C1)N(C)c1ccc2c(-c3ccc(F)cc3Cl)c[nH]c(=O)c2c1` (single isomer, unassigned) [Example 5], the IC50 came out at 8000 nM.
Regarding `CCC1(C(=O)O)CCCN(C(=O)[C@@H](C)Oc2ccc3c(-c4ccccc4C)c[nH]c(=O)c3c2)C1` (single isomer, unassigned) [Example 53], the IC50 amounted to 40 nM.
`Cc1cc(F)ccc1-c1c[nH]c(=O)c2cc(O[C@H](C)C(=O)N3CCN(C(N)=O)CC3)ccc12` [Example 56, (R)-4-(2-((4-(4-fluoro-2-methylphenyl)-1-oxo-1,2-dihydroisoquinolin-7-yl)oxy)propanoyl)piperazine-1-carboxamide]: the IC50 was 30 nM.
For `Cc1cccc(C)c1-c1c[nH]c(=O)c2cc(O[C@H](C)C(=O)N3CCC(C)(C(=O)O)CC3)ccc12` [Example 20, (R)-1-(2-((4-(2,6-dimethylphenyl)-1-oxo-1,2-dihydroisoquinolin-7-yl)oxy)propanoyl)-4-methylpiperidine-4-carboxylic acid], the IC50 stood at 100 nM.
`Cc1ccccc1-c1c[nH]c(=O)c2cc(O[C@H](C)C(=O)N3CC(C(=O)O)CC(F)(F)C3)ccc12` (single isomer, unassigned) [Example 2]: the IC50 stood at 50 nM.
In the case of `Cc1ccccc1-c1c[nH]c(=O)c2cc(O[C@H](C)C(=O)N[C@@H](C)C(N)=O)ccc12` [Example 73, (R)-N-((S)-1-amino-1-oxopropan-2-yl)-2-((1-oxo-4-(o-tolyl)-1,2-dihydroisoquinolin-7-yl)oxy)propanamide] it was 100 nM; in that of `Cc1ccccc1-c1c[nH]c(=O)c2cc(O[C@H](C)C(=O)N3CCCC(C(C)(C)C(N)=O)C3)ccc12` (single isomer, unassigned) [Example 46], 40 nM; in that of `CC(=O)N[C@@H]1CCCN(C(=O)[C@@H](C)Oc2ccc3c(-c4ccccc4C)c[nH]c(=O)c3c2)C1` [Example 29, N-((R)-1-((R)-2-((1-oxo-4-(o-tolyl)-1,2-dihydroisoquinolin-7-yl)oxy)propanoyl)piperidin-3-yl)acetamide], 100 nM.
